In patent US20250249110A1, “ANTIMICROBIAL PEPTIDE DERIVATIVE AND USE THEREOF” (SICHUAN UNIVERSITY, priority 2016, published 2025):
Where a SMILES comes first, the peptide text is derived from it. The star is where a group is joined. Succinyl(4-O-cholesteryl) = CC(C)CCC[C@@H](C)[C@H]1CC[C@H]2[C@@H]3CC=C4C[C@@H](OC(=O)CCC(=O)*)CC[C@]4(C)[C@H]3CC[C@]12C

Experiments:
[1] = system: 293T human embryonic kidney cell line; type: cell-based; settings: 293T cells, 24 h, CCK-8
Experimental: Cytotoxicity of cations is one of the important factors that restrict the application of siRNA transfection. The toxicity of DP7-C micelles to 293T human embryonic kidney cell line, a normal cell, is detected through cell survival experiments. 293T cells are laid in a 96-well plate at a density of 3×10^3 cells per well, and 100 μL of DMEM/20% FBS medium is added to each well and incubated for 24 h. In the experiment, three groups are set up, i.e. DP7-C, PEI25K and Lipofectamin2000; and each group had 10 concentration gradients of 0, 12.5, 18.75, 25, 37, 50, 75, 100, 150 and 200 μg/mL respectively. The survival of the cells was detected by the CCK-8 method. After 24 h of dosing, 10 μL of CCK-8 solution is added to each well and incubated at 37° C. for 2 h. The absorption value of each well is detected at the wavelength of 630 nm and 450 nm by a microplate reader. The standard curve is drawn and IC50 is calculated, and the average value of 6 groups of parallel experiments is taken as the final result.

[2] = Physical characteristics of DP7-C micelles (Malvin particle size meter, appearance); type: physicochemical
From the text: We detected some physical characteristics such as particle size and Zeta potential of DP7-C micelles by the atomic force microscope and Malvin particle size meter. • 1 Atomic force microscope photography: prepare different concentrations of DP7-C solution, add to the mica sheets dropwise and dry naturally. Put the mica sheets coated with DP7-C on the atomic force microscope for photography. • 2 Detection of particle size and Zeta potential: dissolve DP7-C in Milliq water, determine particle size and Zeta potential by Malvin particle size meter, and detect each sample for four times to obtain their average value. • 3 Appearance and solution state of DP7-C: observe the appearance of MilliQ water, DP7-C water solution and lyophilized powder, and take photos with a camera; wherein, a is MilliQ water, b is DP7-C dissolved in aqueous solution, C is the state of DP7-C lyophilized powder after redissolving, and d is the shape and color of DP7-C lyophilized powder.

[3] = system: red blood cells; test: Hemolysis test in vitro; type: cell-based, human (healthy volunteers)
Experimental: In the hemolysis test, DP7 and DP7-C at the same concentration were detected for the hemolysis of red blood cells. • 1. Take the blood of healthy volunteers and put into an anticoagulant tube and gently mix. • 2. Take out the anticoagulant, add isometric physiological saline, mix slowly and evenly, centrifuge at 400×g for 10 min, and discard the supernatant. • 3. Slowly mix the red blood cells and wash with PBS, centrifuge at 400×g for 10 min, discard the supernatant, and wash the cell precipitate with PBS for three times. • 4. Dilute with PBS to obtain 20% (v/v) red blood cell solution, which can be used immediately or stored at 4° C. for about 2 weeks (without hemolysis). • 5. Dilute the drug into a series of concentration gradients with PBS, add 100 μL of drug into a 96-well plate, take 100 μL of 2% Twain 20 as the positive control, add 100 μL of PBS to the negative control. Repeat the process 3 times for each concentration of drug. • 6. Dilute 20% (v/v) of red blood cell solution with PBS according to the volume ratio of 1:20, mix evenly and add to a 96-well plate, with the drug concentration of 100, 200, 400, 600, 800, 1000, 1200, 1600 μg/mL respectively, and incubate at 37° C. for 1 h. • 7. Incubate the mixture of drugs and red blood cells, centrifuge at 900×g for 10 min, add 160 μL of the supernatant to a new 96-well plate, and read the absorbance value at OD 450 nm. • 8. According to the absorbance value of A450, calculate the percentage of hemolysis corresponding to each concentration of drugs.
The calculation formula of the percentage of hemolysis is: […]

[4] = system: YAC-1 cells; test: NK cell killing activity after immunization (LDH release); type: cell-based, mouse; settings: splenic lymphocytes 48 h after primary immunization
Experimental: Innate immunity plays an important role in anti-tumor immunity. We detected the killing activity of mouse NK cells after immunization with DP7-C adjuvant.
After 48 h of primary immunization, kill the mice by the cervical dislocation, and isolate splenic lymphocyte from the lymphocyte separation medium as effector cells.
Resuscitate and incubate YAC-1 cells, transfer one day before the experiment, and keep 2×10^6/20 ml. Stain with trypan blue. Available when activity is more than 95%.
• (1) Add target cells and effector cells into a 96-well plate (ratio of target cells to effector cells: 1:25, 1:50, 1:100, 1:200 as per 10,000 target cells per well) and incubate at 37° C. for 4 h. • (2) Centrifuge at 250 g, and take supernatant for LDH releasing test.

[5] = system: macrophages, neutrophils and monocytes in the abdominal cavity; test: Detection of activated immune-related cells in abdominal cavity (flow cytometry); type: in vivo, mouse; settings: 24 h after 200 μL of 1 mg/mL i.p.
Experimental: Grouping: The mice are randomly divided into two groups (NS group and DP7-C group) with 5 mice in each group.
Each mouse in the DP7-C group is given 200 μL of 1 mg/mL DP7-C, while each mouse in the NS group is injected with 200 μL of normal saline. The mice of both groups are killed 24 h later. Each mouse is intraperitoneally injected with 5 mL of normal saline. By gently massaging the abdomen, the ascites in the abdominal cavity is aspirated to calculate the cell concentration and total cell count there. The lymphocyte typing of the ascites is detected by a flow cytometry, the percentage of macrophages, neutrophils and inflammatory monocytes in total cells is analyzed, and the number of macrophages, neutrophils and inflammatory monocytes is calculated according to the results of flow cytometry and the total number of cells in ascites.

[6] = Milliq water, Malvin particle size meter

SMILES: CC[C@H](C)[C@H](NC(=O)[C@H](CCCNC(=N)N)NC(=O)[C@H](Cc1c[nH]c2ccccc12)NC(=O)[C@H](CCC(N)=O)NC(=O)[C@@H](NC(=O)CCC(=O)O[C@H]1CC[C@@]2(C)C(=CC[C@H]3[C@@H]4CC[C@H]([C@H](C)CCCC(C)C)[C@@]4(C)CC[C@@H]32)C1)C(C)C)C(=O)N[C@@H](CCCNC(=N)N)C(=O)N[C@H](C(=O)N[C@@H](C)C(=O)N[C@H](C(=O)N[C@H](C(=O)N[C@@H](CCCNC(=N)N)C(=O)N[C@@H](CCCCN)C(N)=O)[C@@H](C)CC)C(C)C)C(C)C [DP7-C, Chol-suc-VQWRIRVAVIRK-NH2] ({Succinyl(4-O-cholesteryl)}-VQWRIRVAVIRK-NH2)
- IC50 [1]: exceeding 200 μg/mL
- Zeta potential [2, 6]: about 28.8±0.27 mV
- particle size [2, 6]: about 24.3±1.5 nm
- solubility in water ([2]; lyophilized powder): soluble in water
- appearance of hemolysis test ([3]; FIG. 5B): red blood cells are not lysed
- degree of lysis to red blood cells ([3]; drug concentration more than 0.8 mg/mL, 37° C. 1 h): much less than DP7
- NK cell killing activity [4]: slightly strong NK cell killing activity
- total number of cells in the abdominal cavity [5]: increased significantly
- percentage of monocytes ([5]; abdominal cavity, NS 2.7%): 32.8%
- percentage of macrophages ([5]; abdominal cavity, NS 38.8%): 50.8%
